Measurements: patent US7105536B2, “Compounds” (SmithKline Beecham plc, priority 1999, dated 2006)

Tested on: male rats (Sprague Dawley)
Assay: Maximal electroshock seizure (MEST) threshold test, rat model
Assay type: in vivo
Conditions: 2 mg/kg p.o. at 2 h, suspended in 1% methyl cellulose
Protocol: The maximal electroshock seizure (MEST) threshold test in rodents is particularly sensitive for detecting potential anticonvulsant properties^1. In this model, anticonvulsant agents elevate the threshold to electrically-induced seizures whilst proconvulsants lower the seizure threshold.
The threshold for maximal (tonic hindlimb extension) electroshock seizures in male rats (Sprague Dawley, 80–150 g, 6 weeks old) was determined by a Hugo Sachs Electronik stimulator which delivered a constant current (0.3 sec duration; from 1–300 mA in steps of 5–20 mA). The procedure is similar to that outlined above for mouse and full details are as published by Upton et al,.^4
The percentage increase or decrease in CC50 for each group compared to the control is calculated. Drugs are suspended in 1% methyl cellulose.

Row | SMILES | percentage increase in CC50 compared to the control
1 | CC(C)c1ccc(C(=O)Nc2cc(Cl)c3c(c2)CNCC3)cc1C#N [Example 3, N-(5-Chloro-1,2,3,4-tetrahydroisoquinolin-7-yl)-3-cyano-4-iso-propyl benzamide] | 140%
2 | CCOc1ccc(C(=O)Nc2cc(Cl)c3c(c2)CNCC3)cc1Cl [Example 2, N-(5-Chloro-1,2,3,4-tetrahydroisoquinolin-7-yl)-3-chloro-4-ethoxy benzamide] | 390%
3 | CCOc1ccc(C(=O)Nc2cc(Cl)c3c(c2)CNCC3)cc1Br [Example 7, N-(5-Chloro-1,2,3,4-tetrahydroisoquinolin-7-yl)-3-bromo-4-ethoxybenzamide] | 410%
4 | COc1ccc(C(=O)Nc2cc(Cl)c3c(c2)CNCC3)cc1C#N [Example 5, N-(5-Chloro-1,2,3,4-tetrahydroisoquinolin-7-yl)-3-cyano-4-methoxybenzamide] | 210%
5 | CC(=O)c1cc(C(=O)Nc2cc(Cl)c3c(c2)CNCC3)ccc1OC(C)C [Example 8, N-(5-Chloro-1,2,3,4-tetrahydroisoquinolin-7-yl)-3-acetyl-4-iso-propoxybenzamide] | 114%
